Patent US8569495B2, “Anthelmintic agents and their use” (Intervet International B.V., priority 2007, dated 2013)

tested on: Ascaridia galli (L3) and Oesophagostomum dentatum (L3 and L4); test: In vitro anthelmintic activity against larval stages of Ascaridia galli and Oesophagostomum dentatum (MEC); conditions: Ascaridia galli, in vitro; A. galli L3, O. dentatum L3 and L4; 20 larvae per well; microscopic examination; read-out: minimum effective concentration (MEC) against one or more of the tested nematodes

| SMILES | minimal effective concentration |
| --- | --- |
| O=C(NCC1CCC(Nc2ccc([N+](=O)[O-])c(C(F)(F)F)c2)CC1)C1CCN(c2ccc(Cl)cc2)CC1 (centres unmarked) [Example 107] | < 7 µM |
| Cc1cc(N[C@H]2CC[C@H](OCC(=O)N3CCN(c4ccc(Cl)cc4)CC3)CC2)ccc1[N+](=O)[O-] [Example 241] | < 1 µM |
| O=C(COC1CCC(Nc2ccc([N+](=O)[O-])c(C(F)(F)F)c2)CC1)N1CCC(c2ccc(Cl)cc2)CC1 (centres unmarked) [Example 73] | < 1 µM |
| O=C(COC1CCC(Nc2ccc([N+](=O)[O-])c(C(F)(F)F)c2)CC1)N1CCCN(c2ccc(Cl)cc2)CC1 (centres unmarked) [Example 150] | < 1 µM |
| O=C(COC1CCC(Nc2ccc(OC(F)(F)F)c(C(F)(F)F)c2)CC1)N1CCN(c2ccc(Cl)cc2)CC1 (centres unmarked) [Example 90] | < 1 µM |
| O=C(COC1CCC(Nc2ccc([N+](=O)[O-])c(C(F)(F)F)c2)CC1)N1CC2CC1CN2c1ccc(C(F)(F)F)cc1 (centres unmarked) [Example 146] | < 1 µM |
| CC(C)(C)c1ccc(N2CCC(CNC(=O)C3CCC(Nc4ccc([N+](=O)[O-])c(C(F)(F)F)c4)CC3)CC2)cc1 (centres unmarked) [Example 122] | < 1 µM |
| CC(C)(C)c1ccc(N2CCN(C(=O)NCC3CCC(Nc4ccc([N+](=O)[O-])c(C(F)(F)F)c4)CC3)CC2)cc1 (centres unmarked) [Example 143] | < 1 µM |
| O=C(NCC1CCN(c2ccc(C(F)(F)F)cc2)CC1)C1CCC(Nc2ccc([N+](=O)[O-])c(C(F)(F)F)c2)CC1 (centres unmarked) [Example 120] | < 1 µM |
| O=C(NCC1CCC(Nc2ccc([N+](=O)[O-])c(C(F)(F)F)c2)CC1)N1CCN(c2ccc(C(F)(F)F)cc2)CC1 (centres unmarked) [Example 145] | < 1 µM |
| N#Cc1ccc(NC2CCC(OCC(=S)N3CCN(c4ccc(Cl)cc4)CC3)CC2)cc1C(F)(F)F (centres unmarked) [Example 209] | < 1 µM |
| CN(CC1CCN(c2ccc(C(C)(C)C)cc2)CC1)C(=O)C1CCC(Nc2ccc([N+](=O)[O-])c(C(F)(F)F)c2)CC1 (centres unmarked) [Example 132] | < 1 µM |
| O=[N+]([O-])c1ccc(NC2CCC(OCCN3CCN(c4ccc(C(F)(F)F)cc4)CC3)CC2)cc1C(F)(F)F (centres unmarked) [Example 119] | < 1 µM |
| CC(C)(C)c1ccc(N2CCN(CCOC3CCC(Nc4ccc([N+](=O)[O-])c(C(F)(F)F)c4)CC3)CC2)cc1 (centres unmarked) [Example 116] | < 1 µM |
| CCOc1ccc(N2CCC(CN(C)C(=O)C3CCC(Nc4ccc([N+](=O)[O-])c(C(F)(F)F)c4)CC3)CC2)cc1 (centres unmarked) [Example 133] | < 1 µM |
| Cc1ccc(N2CCN(C(=O)COC3CCC(Nc4ccc([N+](=O)[O-])c(C(F)(F)F)c4)CC3)CC2)c(C)c1 (centres unmarked) [Example 67] | < 1 µM |
| O=C(NCC1CCC(Nc2ccc([N+](=O)[O-])c(C(F)(F)F)c2)CC1)C1CCN(c2ccc(F)cc2)CC1 (centres unmarked) [Example 113] | < 7 µM |
| CN(CC1CCC(Nc2ccc([N+](=O)[O-])c(C(F)(F)F)c2)CC1)C(=O)N1CCN(c2ccc(C(C)(C)C)cc2)CC1 (centres unmarked) [Example 141] | < 1 µM |
| O=[N+]([O-])c1ccc(NC2CCC(OCC(=S)N3CCN(c4ccc(Cl)c(C(F)(F)F)c4)CC3)CC2)cc1C(F)(F)F (centres unmarked) [Example 221] | < 1 µM |
| CCOc1ccc(N2CCC(CNC(=O)C3CCC(Nc4ccc([N+](=O)[O-])c(C(F)(F)F)c4)CC3)CC2)cc1 (centres unmarked) [Example 125] | < 1 µM |
| N#Cc1cc([N+](=O)[O-])ccc1N[C@H]1CC[C@H](OCC(=O)N2CCN(c3ccc(Cl)cc3)CC2)CC1 [Example 245] | < 7 µM |
| Cc1ccc(N2CCC(CNC(=O)C3CCC(Nc4ccc([N+](=O)[O-])c(C(F)(F)F)c4)CC3)CC2)cc1 (centres unmarked) [Example 123] | < 1 µM |
| CC(C)(C)c1ccc(N2CCN(C(=S)COC3CCC(Nc4ccc(OC(F)(F)F)c(C(F)(F)F)c4)CC3)CC2)cc1 (centres unmarked) [Example 206] | < 1 µM |
| COc1ccc(N2CCN(C(=S)COC3CCC(Nc4ccc([N+](=O)[O-])c(C(F)(F)F)c4)CC3)CC2)cc1OC (centres unmarked) [Example 207] | < 1 µM |

same assay, conditions: Ascaridia galli, in vitro; A. galli L3, O. dentatum L3 and L4; 20 larvae per well; microscopic examination; read-out: minimum effective concentration (MEC) against two or more of the tested nematodes

| SMILES | minimal effective concentration |
| --- | --- |
| CCCc1ccc(C2CCN(C(=O)COC3CCC(Nc4ccc(C#N)c(C(F)(F)F)c4)CC3)CC2)cc1 (centres unmarked) [Example 168] | < 1 µM |
| O=C(COC1CCC(Nc2ccc([N+](=O)[O-])c(C(F)(F)F)c2)CC1)N1CCCN(c2ccc(Cl)cc2)CC1 (centres unmarked) [Example 150] | < 1 µM |
| CC(C)(C)c1ccc(N2CCC(CNC(=O)C3CCC(Nc4ccc([N+](=O)[O-])c(C(F)(F)F)c4)CC3)CC2)cc1 (centres unmarked) [Example 122] | < 1 µM |
| CC(C)(C)c1ccc(C2CCN(C(=O)COC3CCC(Nc4ccc(C#N)c(C(F)(F)F)c4)CC3)CC2)cc1 (centres unmarked) [Example 166] | < 1 µM |
| O=C(COC1CCC(Nc2ccc([N+](=O)[O-])c(C(F)(F)F)c2)CC1)N1CCN(c2ccc(Cl)cc2)CC1 (centres unmarked) [Example 63] | < 1 µM |
| O=C(NCC1CCN(c2ccc(C(F)(F)F)cc2)CC1)C1CCC(Nc2ccc([N+](=O)[O-])c(C(F)(F)F)c2)CC1 (centres unmarked) [Example 120] | < 1 µM |
| O=C(NCC1CCC(Nc2ccc([N+](=O)[O-])c(C(F)(F)F)c2)CC1)N1CCN(c2ccc(C(F)(F)F)cc2)CC1 (centres unmarked) [Example 145] | < 1 µM |
| N#Cc1ccc(N2CCN(C(=O)COC3CCC(Nc4ccc([N+](=O)[O-])c(C(F)(F)F)c4)CC3)CC2)cc1C(F)(F)F (centres unmarked) [Example 64] | < 1 µM |
| CC(C)(C)c1ccc(N2CCN(C(=O)COC3CCC(Oc4ccc([N+](=O)[O-])c(C(F)(F)F)c4)CC3)CC2)cc1 (centres unmarked) [Example 260] | < 1 µM |
| CN(CC1CCN(c2ccc(Cl)cc2)CC1)C(=O)C1CCC(Nc2ccc([N+](=O)[O-])c(C(F)(F)F)c2)CC1 (centres unmarked) [Example 136] | < 1 µM |
| O=C(COC1CCC(Nc2ccc([N+](=O)[O-])c(C(F)(F)F)c2)CC1)N1CCC(Nc2ccc([N+](=O)[O-])c(C(F)(F)F)c2)CC1 (centres unmarked) [Example 189] | < 1 µM |
| CSc1ccc(NC2CCN(C(=O)COC3CCC(Nc4ccc([N+](=O)[O-])c(C(F)(F)F)c4)CC3)CC2)cc1C(F)(F)F (centres unmarked) [Example 188] | < 1 µM |
| CN(CC1CCN(c2ccc(C(C)(C)C)cc2)CC1)C(=O)C1CCC(Nc2ccc([N+](=O)[O-])c(C(F)(F)F)c2)CC1 (centres unmarked) [Example 132] | < 1 µM |
| CC(C)(C)c1ccc(N2CCN(C(=O)CO[C@H]3CC[C@H](Nc4ccc([N+](=O)[O-])c(C#N)c4)CC3)CC2)cc1 [Example 248] | < 1 µM |
| CC(C)(C)c1ccc(N2CCN(C(=O)CO[C@H]3CC[C@H](Nc4ccc(C#N)c(C(F)(F)F)c4)CC3)CC2)cc1 [Example 27, 4-(trans-4-{2-[4-(4-tert-butyl-phenyl)-piperazin-1-yl]-2-oxo-ethoxy}-cyclohexylamino)-2-trifluoromethyl-benzonitrile] | < 1 µM |
| O=C(COC1CCC(Nc2ccc([N+](=O)[O-])c(C(F)(F)F)c2)CC1)N1CCN(c2ccc(C(F)(F)F)cc2)C(=O)C1 (centres unmarked) [Example 158] | < 1 µM |
| N#Cc1ccc(NC2CCC(OCC(=O)N3CCCN(c4ccc(SC(F)(F)F)cc4)CC3)CC2)cc1C(F)(F)F (centres unmarked) [Example 160] | < 1 µM |
| O=[N+]([O-])c1ccc(NC2CCC(CCC(=S)N3CCN(c4ccc(C(F)(F)F)cc4)CC3)CC2)cc1C(F)(F)F (centres unmarked) [Example 213] | < 1 µM |
| CCOc1ccc(N2CCC(CN(C)C(=O)C3CCC(Nc4ccc([N+](=O)[O-])c(C(F)(F)F)c4)CC3)CC2)cc1 (centres unmarked) [Example 133] | < 1 µM |
| O=C(COC1CCC(Nc2ccc([N+](=O)[O-])c(C(F)(F)F)c2)CC1)N1CCN(c2ccc(F)cc2F)CC1 (centres unmarked) [Example 71] | < 1 µM |
| CC(C)(C)c1ccc(N2CCN(C(=O)COC3C=C[C@@H](Nc4ccc([N+](=O)[O-])c(C(F)(F)F)c4)C3)CC2)cc1 (some centres unmarked) [Example 259] | < 1 µM |
| CC(C)(C)c1ccc(N2CCN(C(=S)COC3CCC(Nc4ccc(OC(F)(F)F)c(C(F)(F)F)c4)CC3)CC2)cc1 (centres unmarked) [Example 202] | < 1 µM |
| O=C(CC[C@H]1CC[C@H](Nc2ccc([N+](=O)[O-])c(C(F)(F)F)c2)CC1)N1CCN(c2ccc(C(F)(F)F)cc2)CC1 [Example 41, 3-(trans-4-(4-nitro-3-trifluoromethyl-phenylamino)-cyclohexyl)-1-(4-(4-trifluoromethyl-phenyl)-piperazin-1-yl)-propan-1-one] | < 1 µM |
| CC(C)COc1ccc(N2CCN(C(=O)COC3CCC(Nc4ccc([N+](=O)[O-])c(C(F)(F)F)c4)CC3)CC2)cc1 (centres unmarked) [Example 82] | < 1 µM |
| O=C(COC1CCC(Nc2ccc(Cl)c(C(F)(F)F)c2)CC1)N1CCN(c2ccc(OCc3ccccc3)cc2)CC1 (centres unmarked) [Example 97] | < 1 µM |
| CC(C)(C)c1ccc(N2CCC(C(=O)NC[C@H]3CC[C@H](Nc4ccc([N+](=O)[O-])c(C(F)(F)F)c4)CC3)CC2)cc1 [Example 54, 1-(4-tert-butyl-phenyl)-N-[trans-4-(4-nitro-3-trifluoromethyl-phenylamino)-cyclohexylmethyl]-piperidine-4-carboxamide] | < 1 µM |
| CC(C)(C)c1ccc(N2CCN(C(=S)COC3CCC(Nc4ccc(Cl)c(C(F)(F)F)c4)CC3)CC2)cc1 (centres unmarked) [Example 215] | < 1 µM |
| N#Cc1ccc(N[C@H]2CC[C@H](OCC(=O)N3CCN(c4ccc(OCc5ccccc5)cc4)CC3)CC2)cc1C(F)(F)F [Example 25, 4-(trans-4-{2-[4-(4-benzyloxy-phenyl)-piperazin-1-yl]-2-oxoethoxy}-cyclohexylamino)-2-trifluoromethyl-benzonitrile] | < 1 µM |

same assay, conditions: Ascaridia galli, read-out: minimum effective concentration (MEC) against one or more of the tested nematodes, in vitro; A. galli L3, O. dentatum L3 and L4; 20 larvae per well; microscopic examination

| SMILES | minimal effective concentration |
| --- | --- |
| O=C(COC1CCC(Nc2ccc([N+](=O)[O-])c(C(F)(F)F)c2)CC1)NCCCNc1ccc(C(F)(F)F)cc1 (centres unmarked) [Example 152] | < 1 µM |

same assay, conditions: Ascaridia galli, read-out: minimum effective concentration (MEC) against two or more of the tested nematodes, in vitro; A. galli L3, O. dentatum L3 and L4; 20 larvae per well; microscopic examination

| SMILES | minimal effective concentration |
| --- | --- |
| O=C(CO[C@H]1CC[C@H](Nc2ccc([N+](=O)[O-])c(C(F)(F)F)c2)CC1)N1CCN(c2ccc(OCc3ccc(C(F)(F)F)cc3)cc2)CC1 [Example 20, 2-[trans-4-(4-nitro-3-trifluoromethyl-phenylamino)-cyclohexyloxy]-1-{4-[4-(4-trifluoromethyl-benzyloxy)-phenyl]-piperazin-1-yl}-ethanone] | < 1 µM |
| CCC(OC1CCC(Nc2ccc([N+](=O)[O-])c(C(F)(F)F)c2)CC1)C(=O)N1CCN(c2ccc(C(F)(F)F)cc2)CC1 (centres unmarked) [Example 226] | < 1 µM |

same assay, conditions: in vitro; A. galli L3, O. dentatum L3 and L4

| SMILES | activity against the tested nematodes |
| --- | --- |
| O=C(CO[C@H]1CC[C@H](Nc2ccc([N+](=O)[O-])cc2C(F)(F)F)CC1)N1CCN(c2ccccc2)CC1 [Example 240] | no detectable activity |
